From paper PMC11555678, “Improved Broad Spectrum Antifungal Drug Synergies with Cryptomycin, a Cdc50-Inspired Antifungal Peptide” (ACS Infectious Diseases, 2024) come the findings set out here.

SMILES strings stand for the structures. ≈ marks a conversion by molar mass, not a printed value. Square brackets hold non-standard residues; d marks the D form. Peptide text beside a SMILES is read from it. * marks the point of attachment. Myristoyl = CCCCCCCCCCCCCC(=O)*; Orn = NCCC[C@H](N)C(=O)O

Holding throughout (assay): microbe, parasite or virus in culture
One assay deals with C. neoformans Crm1^OE. It counts as cell-based, Cryptococcus neoformans. The conditions noted are these: compound alone; RPMI1640, 37 °C, 48 h. The protocol: (§1) All microdilution assays with fungi were carried out in accordance with CLSI protocols from M27 for yeasts and M38 for filamentous fungi, respectively, unless otherwise specified.[64],[65] Briefly, 96-well plates were charged with RPMI1640 media, with operating volume in the first column, 200 μL, and half operating volume, 100 μL, in the remaining wells. Drug stock solution in DMSO was aliquoted into the first well in each row. Half of the volume in the dosed well was serially diluted 2-fold until column 11. Column 11 was used as the negative growth control, and column 12 was used as the positive growth control. ON yeast cultures in YPD were washed twice in DD-H2O, resuspended in PBS, and adjusted to 5000 cfu/mL in RPMI. The 96-well plate was inoculated with 100 μL aliquots of cell suspension per well. Plates were incubated at 37 °C for 2 days.

A further assay deals with C. neoformans H99. It counts as cell-based, Cryptococcus neoformans. The protocol: as §1
For the next assay, the system named is C. neoformans MRL862. Type of assay: cell-based, Cryptococcus neoformans. The conditions noted are these: MRL862, 48 h. The protocol:
as §1

The subject of another assay is C. neoformans apt1Δ. Type of assay: cell-based, Cryptococcus neoformans. The conditions noted are these: compound alone; RPMI1640, 37 °C, 48 h. The protocol: as §1
Another assay concerns C. neoformans apt2Δ. It counts as cell-based, Cryptococcus neoformans. The conditions noted are these: compound alone; RPMI1640, 37 °C, 48 h. The protocol:
as §1

Another assay deals with C. neoformans apt3Δ. It counts as cell-based, Cryptococcus neoformans. The conditions noted are these: compound alone; RPMI1640, 37 °C, 48 h. The protocol:
as §1

Another assay relates to C. neoformans apt4Δ. Type of assay: cell-based, Cryptococcus neoformans. The conditions noted are these: compound alone; RPMI1640, 37 °C, 48 h. The protocol:
as §1

A further assay relates to C. neoformans cdc50Δ. Type of assay: cell-based, Cryptococcus neoformans. The protocol:
as §1

A further assay deals with C. neoformans crm1Δ. It counts as cell-based, Cryptococcus neoformans. The note with it: compound alone; RPMI1640, 37 °C, 48 h. The protocol:
as §1

A further assay concerns C. albicans SC5413. It counts as cell-based, Candida albicans. The protocol: as §1
Another assay deals with A. fumigatus AF293. It counts as cell-based, Aspergillus fumigatus. The conditions noted are these: AF293, 48 h. The protocol: as §1
[1] abbreviates: Table S1, unit and conditions not given (MICs elsewhere in μg/mL).

Regarding `CCCCCCCCCCCCCC(=O)N[C@@H](Cc1c[nH]c2ccccc12)C(=O)NCC(=O)NCC(=O)N[C@H](C(=O)N[C@@H](CCCN)C(=O)N[C@@H](CCCN)C(=O)N[C@@H](CC(N)=O)C(=O)N[C@@H](Cc1ccc(O)cc1)C(=O)N[C@@H](C)C(N)=O)[C@@H](C)CC` [KKOO-NH2] (Myristoyl-WGGI[Orn][Orn]NYA-NH2), the MIC in the assay with C. neoformans Crm1^OE is 4 µg/mL (≈ 3.29 µM); against C. neoformans H99 (H99, 48 h) it was 8 µg/mL (≈ 6.57 µM); with C. neoformans MRL862, 8 µg/mL (≈ 6.57 µM); in the assay with C. neoformans apt1Δ, 4 µg/mL (≈ 3.29 µM); with C. neoformans apt2Δ, 4 µg/mL (≈ 3.29 µM); against C. neoformans apt3Δ, 4 µg/mL (≈ 3.29 µM). Also, the MIC amounted to 4 µg/mL (≈ 3.29 µM) with C. neoformans apt4Δ; 4 µg/mL (≈ 3.29 µM) against C. neoformans cdc50Δ (compound alone, RPMI1640, 37 °C, 48 h); 4 µg/mL (≈ 3.29 µM) against C. neoformans crm1Δ; 16 µg/mL (≈ 13.1 µM) in the assay on C. albicans SC5413 (SC5413, 48 h); 32 µg/mL (≈ 26.3 µM) against A. fumigatus AF293. Moreover, the “MIC (SAR screen peptides)” value was 8 in the assay on C. neoformans H99 (setting [1]), 4 with C. neoformans cdc50Δ (setting [1]) and 16 with C. albicans SC5413 (setting [1]).
